Measurements reported in patent US12636446B2, “Devices for evaporation and inhalation of nicotine” (Emplicure AB, priority 2016, dated 2026).
Where a name gives a salt, the structure may show the parent alone. Read-outs that look alike come from different tables or passages of the source.

Experiments:
[1] = for amount of nicotine detected in the reference sample / nicotine detected in coins after heating: pure nicotine (20 mg) dispensed; for amount of nicotine detected in the reference sample: not heated
[2] = calcium sulphate rods soaked 24 hours in pure nicotine; heated 5*10 sec., maximum temperature 315° C.
Text: Aluminium oxide ceramic rods and calcium sulphate rods were obtained as described in Example 3. Nicotine and nicotine solutions were supplied and applied, and nicotine levels were detected as described in Example 3.
Samples were heated using a prototype e-cigarette device (X-Cube II, Smoke) obtained from Devex Mekatronik AB (Sweden). The device is derived from the commercially available e-cigarette X-Cube.
The sample in the device was heated up by a coil that is wrapped around the sample.
The end of the device was connected to a vial via a silicon hose. The vial contained 1 ml of deionised water. To simulate smoking a rod was put into the device and puffing was performed. Puffing involves a sequence of 5 puffs that are each 10 seconds long. After puffing, the hose was removed and flushed with the water. The water was analysed for concentration of nicotine.

[3] = calcium sulphate coins, nicotine solution 50 μl, 18 mg/ml dispensed; heated about 1 minute or about 5 minutes
Text: Calcium sulphate coins were obtained as described in Example 3. For the indirect induction test a magnet was molded into the coin. Nicotine and nicotine solutions were supplied and applied, and nicotine levels were detected as described in Example 3.
Metal plate for induction cooker was obtained from Haneström (Sweden). Induction cooker Wilfa ICP-2000 was obtained from Media Markt (Sweden). Magnets (10*1 mm, Samarium Cobalt magnets, 0.4 kg pull) were obtained from first4magnets (UK). IR-thermometer (MS6520A) was obtained from Mastech (USA).
Heat treatment by indirect induction was carried out by placing a metal plate onto the induction cooker. The ceramic coins containing a magnet was applied onto the metal plate and heated on maximum effect (exact temperature was not measured; see FIG. 10).

[4] = Liquid/Powder ratio 0.4 (w/w)
Protocol: Calcium sulphate alpha hemihydrate (CaS) was obtained from Bo Ehrlander AB (Sweden). Shaped silicon rubbers were used as molds for coins (diameter: 12 mm, thickness: 2 mm). The calcium sulphate was mixed with a nicotine solution with a concentration of 5 or 20 mg/ml of nicotine (Liquid/Powder ratio of 0.4 (w/w)) to form a homogenous paste, which was filled in the rubber molds. Once the paste was applied, the molds were set to dry for at least 12 h under ambient conditions.
The temperature was set to approximately 200° C.
The sample was characterized by UV-spectrophotometer at a wavelength of 219 nm. The amount nicotine in the samples were then calculated.

[5] = Text: (§1) Calcium sulphate alpha hemihydrate (CaS) was obtained from Bo Ehrlander AB (Sweden). Clonidine hydrochloride was obtained from PCAS (Finland). Shaped silicon rubbers were used as molds for coins (diameter: 12 mm, thickness: 2 mm). The calcium sulphate was mixed with powder of Clonidine hydrochloride (0.07 g Clonidine hydrochloride/g calcium sulphate) and deionised water (Liquid/Powder ratio of 0.4 (w/w)) to form a homogenous paste, which was used to fill the rubber molds. Once the paste had been applied, the molds were set to dry for at least 12 h under ambient conditions.
The oven temperature was set to approximately 250° C.
(§2) Each coin was weighed and immersed into a beaker containing 200 ml of deionised water. […] The sample was characterized by Shimadzu LC-2030 (Germany) HPLC system with a Genesis C18 analytical column 4 μm (100×2.1 mm i.d.) with a mobile phase of acetonitrile/phosphoric acid, pH 3 (11/89). The wavelength was set to 220 nm.
The reference samples represent the amount of clonidine hydrochloride mg/g calcium sulphate that was loaded before heat treatment.

[6] = calcium sulphate coins, solution 50 μl, 5 mg/ml dispensed; oven approximately 250° C., 0 to 15 minutes
Protocol: as §1, with “with” for “with powder of Clonidine hydrochloride (0.07 g Clonidine hydrochloride/g calcium sulphate) and”, “When” for “Once”, “was” for “had been”
Clonidine hydrochloride solution (50 μl, 5 mg/ml) was dispensed onto the calcium sulphate coins. When the solution was applied, the coins were set to dry for at least 12 h under ambient conditions.
(§3) The temperature was set to approximately 250° C.
as §2
The reference samples represent the amount of clonidine hydrochloride that was loaded before heat treatment.

[7] = Oven heating of calcium sulphate coins pre-loaded with sumatriptan succinate; detection by UV; format: physicochemical; details: 0.07 g sumatriptan succinate/g calcium sulphate, oven approximately 250° C.
Protocol: as §3

[8] = Oven heating of Al2O3 rods soaked in sumatriptan succinate solution; detection by UV; details: Al2O3 rods soaked in 20 mg/ml solution for 24 hours
Protocol: The application of sumatriptan succinate was achieved by soaking the Al2O3 rods in a sumatriptan succinate solution with a concentration of 20 mg/ml. The volume of solution was around 100 μl but was not measured precisely; the volume was sufficient to fully immerse the rods. The samples were soaked for 24 hours in room temperature and thereafter the samples were dried for 24 hours, before heat treatment and/or analysis.
The temperature was set to approximately 300° C. […] The rods were heated in the oven for a period of time ranging from 0 to 15 minutes.
All sumatriptan release tests were carried out according to the same analytical method. The rods were immersed in a beaker containing 50 ml of deionised water. After 24 hours a sample of the water was taken out and filtered (pore size: 0.2 μm). The sample was characterized by UV-spectrophotometry at a wavelength of 282 nm. The amount sumatriptan succinate in the samples was then calculated. The reference samples represent the amount of sumatriptan succinate that was loaded before heat treatment. The difference between the amount of sumatriptan succinate detected in the heat-treated samples and the reference sample represents the amount of sumatriptan succinate that evaporated during the heat treatment.

[9] = calcium sulphate rods soaked in pure nicotine, oven approximately 200° C.

## CN1CCCC1c1cccnc1 (stereo not drawn) [nicotine]
[1]; aluminium oxide rods soaked in 6 mg/ml nicotine solution (diluted e-juice) 24 hours, oven approximately 200° C.
  time within which almost all of the nicotine was released when heated: 5 to 10 min
[1]; aluminium oxide rods soaked in 6 mg/ml nicotine solution for 24 hours
  amount of nicotine absorbed by rod: approximately 135 μg nicotine/rod
[1]; calcium sulphate coins
  amount of nicotine detected in the reference sample: lower than 20 mg
[1]; calcium sulphate coins, oven approximately 200° C.
  nicotine detected in coins after heating: lower release of nicotine was detected after heating
[1]; calcium sulphate rods soaked in pure nicotine for 24 hours
  amount of nicotine absorbed by rod: approximately 20 mg nicotine/rod
[1]; [9]
  nicotine release during heating: Most of the nicotine was released
  nicotine release, 5 min of heating compared to 1 min of heating: a higher amount was released during 5 min of heating compared to 1 min of heating
[1]; geopolymer coins
  amount of nicotine detected in the reference sample: about 16 mg
[1]; geopolymer coins, oven approximately 200° C.
  nicotine detected in coins after heating: lower release of nicotine was detected after heating
[2]
  nicotine release on heat treatment in e-cigarette device: a heat treatment in the device will result in a nicotine release
[3]
  nicotine release on induction heating, unheated plate: Most of the nicotine was released within the first minute
[4]; calcium sulphate coins mixed with 5 mg/ml nicotine solution
  amount of nicotine contained in coin: approximately 180 μg
[4]; calcium sulphate coins mixed with 20 mg/ml nicotine solution
  amount of nicotine contained in coin: ~390 µg

## Clc1cccc(Cl)c1N=C1NCCN1 [clonidine hydrochloride]
[5]; calcium sulphate coins pre-loaded, 0.07 g clonidine hydrochloride/g calcium sulphate, coin approximately 0.3 g
  amount of clonidine hydrochloride contained in coin: approximately 17 mg
[5]; pre-loaded calcium sulphate coins, oven approximately 250° C.
  time within which almost all of the clonidine hydrochloride was released when heated: ≤ 15 min
[6]
  amount of clonidine hydrochloride present in the coins during heating: decreased significantly

## CNS(=O)(=O)Cc1ccc2[nH]cc(CCN(C)C)c2c1 [sumatriptan succinate]
[7]
  time within which almost all of the Sumatriptan succinate was released when heated: ≤ 15 min
[8]
  amount of sumatriptan succinate absorbed by rod: approximately 1 mg sumatriptan succinate/rod
